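Five concentrations, 48 hours, 96-well plates. Definition used: TGI = concentration required for complete inhibition of growth.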
How the values were obtained:
Experiment in all cases: growth of human tumour cells (NCI), 48 h
DLD-1 colon = system: DLD-1 colon
UACC-257 melanoma = system: UACC-257 melanoma
RPMI-8226 leukemia = system: RPMI-8226 leukemia
SF-268 CNS = system: SF-268 CNS
DMS 273 small cell lung = system: DMS 273 small cell lung
NCI-H460 lung = system: NCI-H460 lung
SF-295 CNS = system: SF-295 CNS
MALME-3M melanoma = system: MALME-3M melanoma
NCI-H23 lung = system: NCI-H23 lung
HCC-2998 colon = system: HCC-2998 colon
HOP-62 NSCLC = system: HOP-62 NSCLC
SNB-78 CNS = system: SNB-78 CNS
SW-620 colon = system: SW-620 colon
786-0 renal = system: 786-0 renal
SK-MEL-28 melanoma = system: SK-MEL-28 melanoma
NCI-H522 lung = system: NCI-H522 lung
M14 melanoma = system: M14 melanoma
LXFL 529 NSCLC = system: LXFL 529 NSCLC
OVCAR-3 ovarian = system: OVCAR-3 ovarian
OVCAR-8 ovarian = system: OVCAR-8 ovarian
XF 498 CNS = system: XF 498 CNS
SF-539 CNS = system: SF-539 CNS
CCRF-CEM leukemia = system: CCRF-CEM leukemia
SR leukemia = system: SR leukemia
SNB-75 CNS = system: SNB-75 CNS
K-562 leukemia = system: K-562 leukemia
SN12C renal = system: SN12C renal
SNB-19 CNS = system: SNB-19 CNS
M19-MEL melanoma = system: M19-MEL melanoma
KM12 colon = system: KM12 colon
SK-MEL-2 melanoma = system: SK-MEL-2 melanoma
UACC-62 melanoma = system: UACC-62 melanoma
RXF 393 renal = system: RXF 393 renal
U251 CNS = system: U251 CNS
LOX IMVI melanoma = system: LOX IMVI melanoma
OVCAR-5 ovarian = system: OVCAR-5 ovarian
IGROV1 ovarian = system: IGROV1 ovarian
DMS 114 small cell lung = system: DMS 114 small cell lung
EKVX NSCLC = system: EKVX NSCLC
TK-10 renal = system: TK-10 renal
A498 renal = system: A498 renal
MOLT-4 leukemia = system: MOLT-4 leukemia
HL-60(TB) leukemia = system: HL-60(TB) leukemia
NCI-H226 lung = system: NCI-H226 lung
HT29 colon = system: HT29 colon
KM20L2 colon = system: KM20L2 colon
HOP-92 NSCLC = system: HOP-92 NSCLC
SK-MEL-5 melanoma = system: SK-MEL-5 melanoma
UO-31 renal = system: UO-31 renal
ACHN renal = system: ACHN renal
OVCAR-4 ovarian = system: OVCAR-4 ovarian
A549 NSCLC = system: A549 NSCLC
HCT-116 colon = system: HCT-116 colon
HCT-15 colon = system: HCT-15 colon
CAKI-1 renal = system: CAKI-1 renal
SK-OV-3 ovarian = system: SK-OV-3 ovarian
COLO 205 colon = system: COLO 205 colon
HOP-18 NSCLC = system: HOP-18 NSCLC

CC1=C(C(=O)NCc2ccccc2)C(c2ccc(Cl)c(Cl)c2)C(C(=O)NCc2ccccc2)=C(C)N1
TGI (DLD-1 colon): > 100 µM | TGI (UACC-257 melanoma): > 100 µM | TGI (RPMI-8226 leukemia): > 100 µM | TGI (SF-268 CNS): > 100 µM | TGI (DMS 273 small cell lung): > 100 µM | TGI (NCI-H460 lung): > 100 µM | TGI (SF-295 CNS): > 100 µM | TGI (MALME-3M melanoma): > 100 µM | TGI (NCI-H23 lung): > 100 µM | TGI (HCC-2998 colon): > 100 µM | TGI (HOP-62 NSCLC): > 100 µM | TGI (SNB-78 CNS): > 100 µM | TGI (SW-620 colon): > 100 µM | TGI (786-0 renal): > 100 µM | TGI (SK-MEL-28 melanoma): > 100 µM | TGI (NCI-H522 lung): > 100 µM | TGI (M14 melanoma): > 100 µM | TGI (LXFL 529 NSCLC): > 100 µM | TGI (OVCAR-3 ovarian): > 100 µM | TGI (OVCAR-8 ovarian): > 100 µM | TGI (XF 498 CNS): > 100 µM | TGI (SF-539 CNS): > 100 µM | TGI (CCRF-CEM leukemia): > 100 µM | TGI (SR leukemia): > 100 µM | TGI (SNB-75 CNS): > 100 µM | TGI (K-562 leukemia): > 100 µM | TGI (SN12C renal): > 100 µM | TGI (SNB-19 CNS): > 100 µM | TGI (M19-MEL melanoma): > 100 µM | TGI (KM12 colon): > 100 µM | TGI (SK-MEL-2 melanoma): > 100 µM | TGI (UACC-62 melanoma): > 100 µM | TGI (RXF 393 renal): > 100 µM | TGI (U251 CNS): > 100 µM | TGI (LOX IMVI melanoma): > 100 µM | TGI (OVCAR-5 ovarian): > 100 µM | TGI (IGROV1 ovarian): > 100 µM | TGI (DMS 114 small cell lung): > 100 µM | TGI (EKVX NSCLC): > 100 µM | TGI (TK-10 renal): > 100 µM | TGI (A498 renal): > 100 µM | TGI (MOLT-4 leukemia): > 100 µM | TGI (HL-60(TB) leukemia): > 100 µM | TGI (NCI-H226 lung): > 100 µM | TGI (HT29 colon): > 100 µM | TGI (KM20L2 colon): > 100 µM | TGI (HOP-92 NSCLC): > 100 µM | TGI (SK-MEL-5 melanoma): > 100 µM | TGI (UO-31 renal): > 100 µM | TGI (ACHN renal): > 100 µM | TGI (OVCAR-4 ovarian): > 100 µM | TGI (A549 NSCLC): > 100 µM | TGI (HCT-116 colon): > 100 µM | TGI (HCT-15 colon): > 100 µM

O=C(Cc1nc2sc3c(c2c(=O)[nH]1)CCCC3)Nc1ccccc1
TGI (RPMI-8226 leukemia): > 100 µM | TGI (SF-268 CNS): > 100 µM | TGI (DMS 273 small cell lung): > 100 µM | TGI (NCI-H460 lung): > 100 µM | TGI (SF-295 CNS): > 100 µM | TGI (MALME-3M melanoma): > 100 µM | TGI (NCI-H23 lung): > 100 µM | TGI (HCC-2998 colon): > 100 µM | TGI (HOP-62 NSCLC): > 100 µM | TGI (SW-620 colon): > 100 µM | TGI (786-0 renal): > 100 µM | TGI (SK-MEL-28 melanoma): > 100 µM | TGI (NCI-H522 lung): > 100 µM | TGI (M14 melanoma): > 100 µM | TGI (LXFL 529 NSCLC): > 100 µM | TGI (OVCAR-3 ovarian): > 100 µM | TGI (OVCAR-8 ovarian): > 100 µM | TGI (CAKI-1 renal): > 100 µM | TGI (XF 498 CNS): > 100 µM | TGI (SF-539 CNS): > 100 µM | TGI (CCRF-CEM leukemia): > 100 µM | TGI (SNB-75 CNS): 53.6 µM | TGI (K-562 leukemia): > 100 µM | TGI (SN12C renal): > 100 µM | TGI (SNB-19 CNS): > 100 µM | TGI (M19-MEL melanoma): > 100 µM | TGI (KM12 colon): > 100 µM | TGI (SK-OV-3 ovarian): > 100 µM | TGI (SK-MEL-2 melanoma): > 100 µM | TGI (UACC-62 melanoma): > 100 µM | TGI (RXF 393 renal): 69.9 µM | TGI (COLO 205 colon): > 100 µM | TGI (U251 CNS): > 100 µM | TGI (LOX IMVI melanoma): > 100 µM | TGI (OVCAR-5 ovarian): > 100 µM | TGI (IGROV1 ovarian): > 100 µM | TGI (DMS 114 small cell lung): > 100 µM | TGI (EKVX NSCLC): > 100 µM | TGI (TK-10 renal): > 100 µM | TGI (A498 renal): > 100 µM | TGI (MOLT-4 leukemia): > 100 µM | TGI (HL-60(TB) leukemia): > 100 µM | TGI (NCI-H226 lung): > 100 µM | TGI (HT29 colon): > 100 µM | TGI (KM20L2 colon): > 100 µM | TGI (HOP-92 NSCLC): > 100 µM | TGI (SK-MEL-5 melanoma): > 100 µM | TGI (HOP-18 NSCLC): > 100 µM | TGI (ACHN renal): > 100 µM | TGI (OVCAR-4 ovarian): > 100 µM | TGI (A549 NSCLC): > 100 µM | TGI (HCT-116 colon): > 100 µM | TGI (HCT-15 colon): > 100 µM

COC(=O)c1cccc2c3ccccc3c3ccccc3c12
TGI (DLD-1 colon): > 100 µM | TGI (UACC-257 melanoma): > 100 µM | TGI (SF-268 CNS): > 100 µM | TGI (DMS 273 small cell lung): > 100 µM | TGI (SF-295 CNS): 65.9 µM | TGI (MALME-3M melanoma): > 100 µM | TGI (NCI-H23 lung): 54.7 µM | TGI (HCC-2998 colon): > 100 µM | TGI (HOP-62 NSCLC): > 100 µM | TGI (SW-620 colon): > 100 µM | TGI (786-0 renal): > 100 µM | TGI (SK-MEL-28 melanoma): > 100 µM | TGI (NCI-H522 lung): 80.9 µM | TGI (M14 melanoma): > 100 µM | TGI (LXFL 529 NSCLC): 85.2 µM | TGI (OVCAR-3 ovarian): 56 µM | TGI (OVCAR-8 ovarian): 58.2 µM | TGI (CAKI-1 renal): > 100 µM | TGI (CCRF-CEM leukemia): 72.8 µM | TGI (SR leukemia): 87.7 µM | TGI (SNB-75 CNS): > 100 µM | TGI (K-562 leukemia): 79.3 µM | TGI (SN12C renal): > 100 µM | TGI (SNB-19 CNS): > 100 µM | TGI (M19-MEL melanoma): > 100 µM | TGI (KM12 colon): > 100 µM | TGI (SK-OV-3 ovarian): 75.7 µM | TGI (SK-MEL-2 melanoma): 58.7 µM | TGI (UACC-62 melanoma): > 100 µM | TGI (RXF 393 renal): 71.3 µM | TGI (COLO 205 colon): 31.7 µM | TGI (U251 CNS): 73.6 µM | TGI (LOX IMVI melanoma): 81 µM | TGI (OVCAR-5 ovarian): > 100 µM | TGI (IGROV1 ovarian): > 100 µM | TGI (DMS 114 small cell lung): 94.7 µM | TGI (EKVX NSCLC): > 100 µM | TGI (TK-10 renal): > 100 µM | TGI (A498 renal): 50 µM | TGI (MOLT-4 leukemia): 61.7 µM | TGI (HL-60(TB) leukemia): 58.1 µM | TGI (NCI-H226 lung): > 100 µM | TGI (HT29 colon): 83 µM | TGI (KM20L2 colon): > 100 µM | TGI (SK-MEL-5 melanoma): > 100 µM | TGI (UO-31 renal): > 100 µM | TGI (HOP-18 NSCLC): > 100 µM | TGI (ACHN renal): > 100 µM | TGI (OVCAR-4 ovarian): > 100 µM | TGI (A549 NSCLC): > 100 µM | TGI (HCT-116 colon): > 100 µM | TGI (HCT-15 colon): > 100 µM

From PubChem BioAssay (NCI)
